Among the data in PubChem BioAssay (NCI) are TGI and GI50 values, retold here.

The structures appear in SMILES notation.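 In this assay, cells in 96-well plates receive the compound at five concentrations for 48 hours. Endpoints are linearly interpolated between the surrounding concentrations. The concentration for 50% growth inhibition is given as GI50. TGI denotes the concentration required for complete inhibition of growth.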

Some test systems named below: OVCAR-4 ovarian; ACHN renal; CCRF-CEM leukemia; 786-0 renal; SNB-19 CNS; UACC-62 melanoma; SW-620 colon; HCT-116 colon; IGROV1 ovarian; MCF7 breast; NCI-H522 lung.
Test in all cases: inhibition of tumour cell growth, NCI panel, 48 h

Regarding `C(=C\c1cc(-c2ccc3ccccc3n2)nc2ccc3ccccc3c12)/c1ccc2ccccc2n1`, the TGI in the test on OVCAR-4 ovarian, in the test on ACHN renal, with CCRF-CEM leukemia, in the test with 786-0 renal, with SNB-19 CNS and in the test on UACC-62 melanoma was > 100 µM in each case. Also, the TGI in the test on SW-620 colon, in the test on HCT-116 colon, in the test on IGROV1 ovarian and with MCF7 breast was > 100 µM throughout.

On to `O=[N+]([O-])c1ccc2c(c1)c(S(=O)(=O)O)cc1nonc12`, for which the TGI with OVCAR-4 ovarian, in the test on ACHN renal, in the test on NCI-H522 lung, in the test with 786-0 renal, with SNB-19 CNS and in the test on UACC-62 melanoma was > 100 µM in each case. In addition, the TGI in the test on SW-620 colon, with HCT-116 colon, in the test with IGROV1 ovarian and in the test on MCF7 breast was > 100 µM each time.

As for `CCOc1ccc2nc(NC(NC(=O)c3cccnc3)(C(F)(F)F)C(F)(F)F)sc2c1`, the TGI with OVCAR-4 ovarian is > 100 µM; with ACHN renal it was > 100 µM; with NCI-H522 lung, 84.2 µM; with CCRF-CEM leukemia it was 67.9 µM; with 786-0 renal it was 94.3 µM; in the test with SNB-19 CNS, > 100 µM. The TGI in the test with UACC-62 melanoma was 91.6 µM; with SW-620 colon it was > 100 µM; with HCT-116 colon, > 100 µM; in the test with MCF7 breast, 91.4 µM.

For `Oc1ccc(C#CCOc2ccccc2)cc1CNCCN(Cc1ccccn1)Cc1ccccn1`, the GI50 in the test with OVCAR-4 ovarian is 1.29 µM; with ACHN renal, 1.16 µM; with NCI-H522 lung, 2.07 µM; in the test with CCRF-CEM leukemia, 0.833 µM; in the test on SNB-19 CNS it was 0.797 µM; in the test on UACC-62 melanoma, 1.68 µM. For the same compound, the GI50 was 1.86 µM with SW-620 colon, 0.45 µM with IGROV1 ovarian and 1.07 µM in the test on MCF7 breast. Besides, the TGI in the test on OVCAR-4 ovarian amounted to 3.71 µM; with ACHN renal, 2.38 µM; with NCI-H522 lung, 6.67 µM; in the test on CCRF-CEM leukemia, 10.7 µM; in the test on SNB-19 CNS it was 7.67 µM; in the test on UACC-62 melanoma, 3.59 µM. The TGI with SW-620 colon is 4.89 µM; with IGROV1 ovarian it was 1.66 µM; in the test with MCF7 breast it was 4.43 µM.

In the case of `Cc1nc(C(N)=S)sc1C(=O)C/C(=N/N)C(=O)Nc1ccc(Cl)cc1`, the TGI in the test on OVCAR-4 ovarian, with ACHN renal, in the test on NCI-H522 lung, in the test on 786-0 renal, with SNB-19 CNS and in the test with UACC-62 melanoma was > 100 µM each time. Besides, the TGI in the test with SW-620 colon, in the test on HCT-116 colon, in the test on IGROV1 ovarian and in the test with MCF7 breast was > 100 µM each time.

In the case of `CC1CCc2sc3[nH]c(=S)n(-c4ccccc4)c(=O)c3c2C1` (configuration not stated), the TGI in the test with OVCAR-4 ovarian, with ACHN renal, with NCI-H522 lung, in the test with 786-0 renal, with SNB-19 CNS and in the test with UACC-62 melanoma was > 100 µM in each case. Also, the TGI in the test on SW-620 colon, in the test with HCT-116 colon, in the test with IGROV1 ovarian and in the test with MCF7 breast was > 100 µM in each case.

Turning to `C[C@]1(O)O[C@@H]2OCC[C@@H]2C2=C1C(=O)c1ccccc1C2=O`, the TGI in the test with OVCAR-4 ovarian was 28.4 µM; with ACHN renal, 31.7 µM; in the test with NCI-H522 lung it was 31.6 µM; with CCRF-CEM leukemia, 51.2 µM; in the test with 786-0 renal, 28.8 µM; in the test on SNB-19 CNS, 35.2 µM. The TGI came out at 39.5 µM in the test with UACC-62 melanoma, 39.8 µM in the test with SW-620 colon, 27.2 µM with IGROV1 ovarian and 23.3 µM with MCF7 breast.

With `CC(=O)/C=C(\O)c1[nH]c(C(=O)O)cc1C1CCN(Cc2ccccc2)C1=O` (configuration not stated), the TGI with OVCAR-4 ovarian is > 100 µM; with ACHN renal, > 100 µM; in the test with NCI-H522 lung, 49.7 µM; in the test with 786-0 renal it was 47.6 µM; in the test on SNB-19 CNS it was 83.5 µM; in the test with UACC-62 melanoma, 41.7 µM. Further, the TGI in the test on SW-620 colon is > 100 µM; in the test with HCT-116 colon it was 61.7 µM; with IGROV1 ovarian, 61.5 µM; in the test on MCF7 breast it was 65.7 µM.

As for `c1ccc(C(CCN2CC3CCC(CC3)C2)c2ccccc2)cc1`, the TGI with OVCAR-4 ovarian is > 100 µM; in the test on ACHN renal, 57.8 µM; in the test on NCI-H522 lung, 31.9 µM; in the test with 786-0 renal, 36.1 µM; with SNB-19 CNS, > 100 µM; in the test on UACC-62 melanoma, 35.3 µM. Moreover, the TGI in the test on SW-620 colon was > 100 µM; in the test on HCT-116 colon, 63.8 µM; with IGROV1 ovarian it was > 100 µM; with MCF7 breast, 29 µM.

Consider `CCN(CC)C(=O)N1CN(c2ccccc2)C2(CCN(CCCSc3ccc(F)cc3)CC2)C1=O`, for which the TGI in the test with OVCAR-4 ovarian was > 100 µM; in the test with ACHN renal it was 15.8 µM; in the test with NCI-H522 lung, 30.5 µM; in the test on CCRF-CEM leukemia, > 100 µM; with 786-0 renal, 25.4 µM; in the test on SNB-19 CNS, > 100 µM. Besides, the results for the TGI with SW-620 colon, with HCT-116 colon and in the test on MCF7 breast were 43 µM, 12.9 µM and > 100 µM, respectively.

Take `Clc1c(C(Cl)(Cl)Cl)nsc1N1CCCCC1`: the TGI in the test on OVCAR-4 ovarian is > 100 µM; in the test with ACHN renal it was > 100 µM; in the test with CCRF-CEM leukemia, 40.5 µM; with 786-0 renal, 39.2 µM; in the test on SNB-19 CNS, 69.7 µM; with UACC-62 melanoma, > 100 µM. For the same compound, the TGI is > 100 µM with SW-620 colon, 76.6 µM in the test on HCT-116 colon, > 100 µM in the test with IGROV1 ovarian and 69.3 µM in the test on MCF7 breast.

As for `N#Cc1nc(CCC(c2nc(C#N)c(N)o2)N2C(=O)c3ccccc3C2=O)oc1N` (configuration not stated), the TGI in the test on OVCAR-4 ovarian, with ACHN renal, in the test with NCI-H522 lung, in the test with 786-0 renal, with SNB-19 CNS and in the test with UACC-62 melanoma was > 100 µM each time. Further, the TGI with SW-620 colon, with HCT-116 colon, in the test on IGROV1 ovarian and in the test with MCF7 breast was > 100 µM throughout.

As for `COc1ccc(/C=N/NC(=O)c2cnc3[nH]c(=O)n(C)c(=O)c3c2)cc1`, the TGI in the test on OVCAR-4 ovarian is > 100 µM; in the test with ACHN renal, > 100 µM; with CCRF-CEM leukemia, > 100 µM; in the test with 786-0 renal, > 100 µM; in the test with SNB-19 CNS it was 98.8 µM; in the test on UACC-62 melanoma it was > 100 µM. For the same compound, the TGI in the test on SW-620 colon, with HCT-116 colon, in the test with IGROV1 ovarian and with MCF7 breast was > 100 µM in each case.
